Test results as given in patent publication EP2216326B1, “Biologically acceptable choline compounds and their use as tensides” (Universität Regensburg, priority 2009, dated 2010).
Like-named read-outs stand apart in the source and are kept apart here.

How the values were obtained:
HeLa-Zellen = assay: MTT assay (Mosmann) cytotoxicity on HeLa cells; format: cell-based, human; settings: 72 h at 37°C, at least 5 independent measurements, high values mean low toxicity
From the text: (§1) Die Zytotoxizität und Hautverträglichkeit von ChDS im Vergleich zu anderen gängigen anionischen Tensiden wurden mittels in-vitro Tests an HeLa-Zellen (humane Gebärmutterhalskrebszellen) und SK-MHL 28 Zellen (humane Melanom-Zellen) getestet. Dieses etablierte in vitro Verfahren ist in N. Vlachy, D. Touraud, J. Heilmann, W. Kunz, Colloids and Surfaces B: Biointerfaces, 2009, 70, 278 - 280 beschrieben und bietet eine gute Alternative zu den in vivo Draize-Augenirritationstests.
(§2) Die Zellen wurden von der American Type Culture Collection (ATCC) zur Verfügung gestellt. Die Kultivierung der HeLa-Zellen erfolgte in Earle's minimum essential medium (MEM) mit 0.85 g/l Natriumhydrogencarbonat, zusätzlich versetzt mit fötalem Kälberserum (10%), L-Glutamin (2mM), nichtessentiellen Aminosäuren (1%), Amphotericin B ([…]) und Penicillin G/Streptomycin Sulfat (100u/ml). Die SK - MEL 28 - Zellen wurden in einer 1:1 Mischung aus Dulbecco's MEM mit 4.5 g/l Natriumhydrogencarbonat sowie LGlutamin und Pyrovat und HAM'S F-12 Medium mit 1.176 g/l Natriumhydrogencarbonat und stabilem Glutamin, versetzt mit 10% fötalem Kälberserum, kultiviert.
(§3) Die Inhibitionskonzentration an Testsubstanz, welche zu einer Reduktion an lebenden Zellen um 50% im Vergleich zu einer unbehandelten Kontrolle führt (IC 50), wurde via MTT-Assay nach Mosmann festgestellt.
(§4) Hierzu wurden in der ersten Spalte einer 96-Well-Platte je 15 µl an wässriger Testsubstanzlösung mit 135 µl Medium durchmischt. Je 75 µl dieser Mischung wurden abgenommen und in der zweiten Spalte mit 75 µl Medium verdünnt. Diese Prozedur wurde bis zur vollständigen Füllung der Platte von Spalte zu Spalte wiederholt. Anschließend wurden in jedem Well 11250 Zellen in 75 µl Medium angesät. Die so vorbereiteten Platten wurden 72 Stunden bei 37°C im Brutschrank aufbewahrt.
(§5) Danach wurden 15 µl MTT - Lösung zu jedem Well gegeben und für weitere 4 Stunden inkubiert. Im Anschluss wurde die überstehende Lösung abgetrennt und der reduzierte MTT-Bodensatz jeweils mit 150 µl 10%iger Natrumdodecylsulfat-Lösung versetzt. Nachdem die Platten über Nacht unter Lichtausschluss stehen gelassen wurden, wurde die Absorption der Lösungen bei 560 nm mittels einem TECAN Spectra Fluor Plus microplate reader bestimmt. Nach Mittelung an zwei Einzelmessungen konnte aus den sich ergebenden Dosis-Wirkungskurven der entsprechende IC 50 Wert errechnet werden. Angegebene Werte der Inhibitionskonzentration errechnen sich aus mindestens 5 unabhängigen Messungen.

SK-MEL 28-Zellen = assay: MTT assay (Mosmann) cytotoxicity on SK-MEL 28 cells; format: cell-based, human; settings: 72 h at 37°C, at least 5 independent measurements, high values mean low toxicity
From the text: as §1, §2, §3, §4, §5

[1] = cited from earlier work; for TKr (Krafft-Temperatur): literature values of comparison substances, references (1)-(3); for Löslichkeitstemperatur in Wasser: water, literature or background statement
[2] = Krafft temperature (solubility temperature of a 1 wt% aqueous solution) by turbidity measurement, with and without added salt; format: physicochemical
From the text: Als Maß für die Löslichkeit und Salzempfindlichkeit wurden die Krafft-Punkte in Abwesenheit von Salzen sowie bei unterschiedlichen Salzkonzentrationen herangezogen.
Allgemein kann die Krafft-Temperatur eines Tensids als die Löslichkeitstemperatur einer 1 Gew. %igen Lösung definiert werden, da die CMC generell weit unterhalb dieser Konzentration liegt (R. G. Laughlin, The Aqueous Phase Behavior of Surfactants, Academic Press, San Diego, 1994, p. 108). Dementsprechend wurde zur Bestimmung der Krafft-Temperatur von ChDS eine 1 gew. - %ige Lösung eingewogen. Zur Untersuchung des Einflusses von Salzen auf den Krafft-Punkt wurden 1 gew% - igen Lösungen von ChDS verschiedene Mengen an Natriumchlorid (Merck, p.a.) bzw. Cholinchlorid (Sigma-Aldrich, min. 98%) zugesetzt und die zugehörige Löslichkeitstemperatur gemessen.
Präzise Löslichkeitstemperaturen wurden aus Trübungsmessungen gemäß des in S. Schrödle, R. Buchner, W. Kunz, Fluid Phase Equilib., 2004, 216, 175-182 beschriebenen Verfahrens erhalten. Hierzu wurden alle untersuchten Proben bis zum Auftreten eines Niederschlags abgekühlt und anschließend mit einer Rate von 5°C pro Stunde wieder aufgeheizt.
Die Salzempfindlichkeit wurde durch Messung der Krafft-Temperatur bei unterschiedlichen Salzkonzentrationen untersucht.

[3] = Surface tension of aqueous surfactant solutions, ring method (Krüss Tensiometer K100); format: physicochemical; settings: 25°C, aqueous solution, value reached starting from ca. 70 mN/m for water (Figur 3)
Protocol: Die Herabsetzung der Grenzflächenspannung von Wasser durch Zugabe an Tensid ist ein wichtiges Maß für die Effizienz eines Tensids. Die Oberflächenspannung von wässrigen ChDS- und SDS- Lösungen wurde anhand der Ringmethode mit einem Krüss Tensiometer K100 vermessen. Figur 3 zeigt die gemessene Grenzflächenspannung bei einer Temperatur von 25°C in Abhängigkeit von der Konzentration.

[4] = Solubility in organic solvents; format: physicochemical; settings: Chloroform, Aceton, Acetonitril or Dimethylsulfoxid
Ratten-Gliom-Zellen = settings: rat glioma cells, cited from earlier work

## CCCCCCCCCCCC(=O)O [ChCl2, Cholinlaurat]
HeLa-Zellen
  IC50: 305 ± 6 µM
SK-MEL 28-Zellen
  IC50: 360 ± 10 µM
[1]
  TKr (Krafft-Temperatur): <0°C^(3)

## CCCCCCCCCCCCOS(=O)(=O)O [ChDS, Cholindodecylsulfat]
HeLa-Zellen; Homo sapiens, HeLa, 72 h
  IC50: 404 ± 4 µM
SK-MEL 28-Zellen; Homo sapiens, SK-MEL-28, 72 h
  IC50: 430 ± 20 µM
[2]; 1 wt% aqueous solution, no salt, turbidity measurement
  TKr (Krafft-Temperatur): 0 °C
[2]; NaCl:surfactant ratio of 1:1, 1 wt% solution (Figur 1, Figur 2)
  Anstieg der Krafft-Temperatur: ~7 °C
[2]; water, found by the applicant
  in Wasser löslich bis (Temperatur): < 0 °C
[3]
  Grenzflächenspannung von Wasser: ca. 37 mN/m
[4]
  Löslichkeit in organischen Lösungsmitteln: gut löslich

## C[N+](C)(C)CCO [Cholin, (2-Hydroxyethyl)trimethylammonium]
Ratten-Gliom-Zellen; factor of lower toxicity versus TMA
  Toxizität geringer im Vergleich zu Tetramethylammonium (TMA), Faktor: 5,5
Ratten-Gliom-Zellen; fold lower toxicity versus tetrabutylammonium
  Toxizität geringer im Vergleich zu Tetrabutylammonium, -fach: > 500

## CCCCCCCCCCCC(=O)O [KC12, Kaliumlaurat]
HeLa-Zellen; Homo sapiens, HeLa, 72 h
  IC50: 234 ± 5 µM
SK-MEL 28-Zellen; Homo sapiens, SK-MEL-28, 72 h
  IC50: 400 ± 10 µM
[1]
  TKr (Krafft-Temperatur): 10°C^(3)

## CCCCCCCCCCCCOS(=O)(=O)O [KDS, Kaliumdodecylsulfat]
[1]
  TKr (Krafft-Temperatur): 40°C^(1)

## CCCCCCCCCCCC(=O)O [NaCl2, Natriumlaurat]
HeLa-Zellen
  IC50: 230 ± 10 µM
SK-MEL 28-Zellen
  IC50: 420 ± 10 µM
[1]
  TKr (Krafft-Temperatur): 25°C^(2)

## CCCCCCCCCCCCOS(=O)(=O)O [SDS, Natriumdodecylsulfat]
HeLa-Zellen
  IC50: 270 ± 10 µM
SK-MEL 28-Zellen
  IC50: 320 ± 30 µM
[3]
  Grenzflächenspannung von Wasser: ca. 36 mN/m
[4]
  Löslichkeit in organischen Lösungsmitteln: nur geringe Löslichkeit
[1]
  TKr (Krafft-Temperatur): 16°C^(1)
  Löslichkeitstemperatur in Wasser: 12-25 °C

## CCCCCCCCCCCCOS(=O)(=O)O [Tetramethylammoniumdodecylsulfat]
[1]
  Löslichkeitstemperatur in Wasser: < 0 °C
